Patent US20060079453A1, “Hla binding peptides and their uses” (priority 2002, published 2006)
Where “and” joins values, the source holds several entries; their conditions need not be identical. Identical values can stand only once. Like-named read-outs stand apart in the source and are kept apart here. No end group written: not given here.

What was measured:
Assay in all cases: biochemical
[1] = molecular target: HLA-DQ DQA1*0301/B*0301 (DQ7) (Homo sapiens, UniProt P01909+P01920, A209T/C70Q/DUP78-78/E183D/F237L/G63E/I129T/K197E/L178F/L74F/L98V/Q57E/Q76R/S185I/S97I/T49S/V73L); format: binding
H-2Dd = H-2Dd (Mus musculus, UniProt P01900); format: binding, murine
HLA-DR DRB1*0401 (DR4) = HLA-DR DRB1*0401 (DR4) (Homo sapiens, UniProt P01903+P01911, A100K/A169T/F76Y/I96L/K127E/L162R/M171V/N62H/P40V/Q125Y/R42H/S133A/S149N/S66Y/V115G/V209L/W38E); format: binding; details: DRB1 *0401
HLA-DR DRB1*0701 (DR7) = HLA-DR DRB1*0701 (DR7) (Homo sapiens, UniProt P01903+P01911, A100R/A102G/A103Q/D57E/D86V/E43K/F76Y/K127E/L162R/M171V/P40G/Q125H/Q99D/R33Q/R42Y/R54Q/S133A/S66F/T210M/V115G/Y107V/Y59L/Y89S); format: binding; details: DRB1 *0701
HLA-DR DRB1*1101 (DR11) = HLA-DR DRB1*1101 (DR11) (Homo sapiens, UniProt P01903+P01911, A100R/A169T/A87E/I96F/K41T/L162R/M171V/P40S/Q125H/Q178H/Q39Y/Q99D/R42S/S66Y/T262R/V115G/W38E); format: binding
HLA-DR DRB5*0101 (DR51) = HLA-DR DRB5*0101 (DR51) (Homo sapiens, UniProt P01903+Q30154); format: binding
H-2 Db = H-2 Db (Mus musculus, UniProt P01899); format: binding, murine
HLA-DR DRB1*0301 (DR3) = HLA-DR DRB1*0301 (DR3) (Homo sapiens, UniProt P01903+P01911, A100K/A102G/A103R/A169T/F55Y/I96L/K41T/L162R/M171V/P40S/Q125H/Q178H/Q39Y/R42S/S66N/T106N/T262R/W38E/Y61H); format: binding
HLA-DR DRB1*0405 (DR4) = HLA-DR DRB1*0405 (DR4) (Homo sapiens, UniProt P01903+P01911, A100R/A169T/D86S/F76Y/I96L/K127E/L162R/M171V/N62H/P40V/Q125Y/R42H/S133A/S149N/S66Y/V115G/V209L/W38E); format: binding; details: DRB1 *0405
HLA-DR DRB1*0802 (DR8) = HLA-DR DRB1*0802 (DR8) (Homo sapiens, UniProt P01903+P01911, A100R/A103L/A169T/F76Y/H45Y/I96F/K41T/L162R/M171V/P40S/Q125H/Q178H/Q39Y/Q99D/R218S/R42G/S66Y/V115G/W38E); format: binding
HLA-DR DRB1*0901 (DR9) = HLA-DR DRB1*0901 (DR9) (Homo sapiens, UniProt P01903+P01911, A100R/A103E/D57H/D86V/F55Y/F60I/F76Y/I96F/K127E/L162R/M171V/P40D/Q125H/Q99R/R33Q/R42F/S133A/S66N/T210M/V115G/W38K/Y107V/Y59G/Y89S); format: binding; details: DRB1 *0901
HLA-DR DRB1*1501 (DR15) = HLA-DR DRB1*1501 (DR15) (Homo sapiens, UniProt P01903+P01911); format: binding
HLA-DR DRB3*0101 (DR52) = HLA-DR DRB3*0101 (DR52) (Homo sapiens, UniProt P01903+P79483); format: binding
HLA-DR DRB4*0101 (DR53) = HLA-DR DRB4*0101 (DR53) (Homo sapiens, UniProt P01903+P13762, G164S); format: binding
HLA-B*0702 = HLA-B*0702 (Homo sapiens, UniProt P01889); format: binding
HLA-DR DRB1*1302 (DR13) = HLA-DR DRB1*1302 (DR13) (Homo sapiens, UniProt P01903+P01911, A100E/A169T/K41T/L162R/M171V/P40S/Q125H/Q178H/Q39Y/Q99D/R42S/S66N/T262R/V115G/W38E/Y61H); format: binding; details: read-out: DRBI *1302
Sequence of HLA-DR DRB1*1302 (DR13) (P01903 26-254 limits assumed, other chains not shown): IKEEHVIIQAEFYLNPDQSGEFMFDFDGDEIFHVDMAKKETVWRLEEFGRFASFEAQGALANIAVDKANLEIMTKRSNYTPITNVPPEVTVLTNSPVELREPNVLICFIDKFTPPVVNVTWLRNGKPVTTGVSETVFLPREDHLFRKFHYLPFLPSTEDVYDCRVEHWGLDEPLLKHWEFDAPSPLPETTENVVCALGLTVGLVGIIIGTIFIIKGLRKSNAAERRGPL

Sequence of HLA-DR DRB1*1101 (DR11) (P01903 26-254 limits assumed, other chains not shown): as above
Sequence of H-2Dd (P01900 25-365): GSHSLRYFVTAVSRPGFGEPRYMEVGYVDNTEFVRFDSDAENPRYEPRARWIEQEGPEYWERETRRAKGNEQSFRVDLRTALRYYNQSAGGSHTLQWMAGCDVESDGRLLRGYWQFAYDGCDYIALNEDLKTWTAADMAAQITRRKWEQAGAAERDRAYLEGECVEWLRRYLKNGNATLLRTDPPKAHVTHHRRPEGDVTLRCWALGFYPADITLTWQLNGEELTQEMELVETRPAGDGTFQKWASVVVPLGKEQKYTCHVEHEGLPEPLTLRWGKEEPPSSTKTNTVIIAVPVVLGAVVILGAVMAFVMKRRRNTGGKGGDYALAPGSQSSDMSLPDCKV
Sequence of H-2Dd (P61769 21-119, further chain): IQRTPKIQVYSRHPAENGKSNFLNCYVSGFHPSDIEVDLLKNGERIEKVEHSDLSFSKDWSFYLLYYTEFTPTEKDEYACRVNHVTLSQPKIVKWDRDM
Sequence of H-2 Db (P61769 21-119): as the sequence (P61769 21-119, further chain) above
Sequence of H-2 Db (P01899 25-362): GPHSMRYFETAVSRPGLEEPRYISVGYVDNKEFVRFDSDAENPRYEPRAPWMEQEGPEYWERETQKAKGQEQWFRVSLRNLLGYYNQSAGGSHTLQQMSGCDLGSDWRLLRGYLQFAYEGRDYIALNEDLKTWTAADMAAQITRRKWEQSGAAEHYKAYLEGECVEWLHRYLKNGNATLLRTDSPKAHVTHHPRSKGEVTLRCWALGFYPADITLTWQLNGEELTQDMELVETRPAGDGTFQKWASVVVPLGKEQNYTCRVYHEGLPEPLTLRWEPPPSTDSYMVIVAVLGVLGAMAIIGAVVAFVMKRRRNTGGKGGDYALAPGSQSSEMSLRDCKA
Sequence of HLA-DR DRB1*0301 (DR3) (P01903 26-254 limits assumed, other chains not shown): as the sequence (P01903 26-254 limits assumed, other chains not shown) above

## KEDSHCAWTWRVEI
[1]; read-out: DQB1*0301
  IC50: 4100 nM

## RGAYRAFVTI
H-2Dd
  IC50: 3.4 nM

## AHAAHAAHAAHAAHAA
HLA-DR DRB1*0401 (DR4)
  IC50: 80000 nM
HLA-DR DRB1*0701 (DR7)
  IC50: > 250000 nM
HLA-DR DRB1*1101 (DR11); DRB1 *1101
  IC50: ≥ 200000 nM
HLA-DR DRB5*0101 (DR51); DRB5 *0101
  IC50: ≥ 200000 nM
[1]
  IC50: 58 nM

## SSMHNALHI
H-2 Db; Db
  IC50: 7.6 nM

## TGICNQNII
H-2 Db; read-out: Db
  IC50: 21 nM

## RGPGRAYVTI
H-2Dd
  IC50: 14 nM

## CC[C@H](C)[C@H](NC(=O)[C@@H](N)CCCCN)C(=O)N[C@@H](Cc1ccccc1)C(=O)NCC(=O)N[C@@H](CO)C(=O)N[C@@H](CC(C)C)C(=O)N[C@@H](C)C(=O)N[C@@H](Cc1ccccc1)C(=O)N[C@@H](CC(C)C)C(=O)N1CCC[C@H]1C(=O)N[C@@H](CCC(=O)O)C(=O)N[C@@H](CO)C(=O)N[C@@H](Cc1ccccc1)C(=O)N[C@@H](CC(=O)O)C(=O)NCC(=O)N[C@@H](CC(=O)O)C(=O)N1CCC[C@H]1C(=O)N[C@@H](C)C(=O)O
HLA-DR DRB1*0301 (DR3)
  IC50: 74200 nM
HLA-DR DRB1*0401 (DR4)
  IC50: 1200 nM
HLA-DR DRB1*0405 (DR4)
  IC50: 37 nM
HLA-DR DRB1*0701 (DR7)
  IC50: 377 nM
HLA-DR DRB1*0802 (DR8)
  IC50: > 75400 nM
HLA-DR DRB1*0901 (DR9)
  IC50: 15800 nM
HLA-DR DRB1*1101 (DR11); DRB1 *1101
  IC50: > 52600 nM
HLA-DR DRB1*1501 (DR15); DRBI *1501
  IC50: 2260 nM
HLA-DR DRB3*0101 (DR52)
  IC50: 43700 nM
HLA-DR DRB4*0101 (DR53); DRB4 *0101
  IC50: 10000 nM
HLA-DR DRB5*0101 (DR51); DRB5 *0101
  IC50: 8010 nM
[1]
  IC50: 320 nM

## CSCC[C@H](NC(=O)[C@H](C)NC(=O)[C@H](C)NC(=O)[C@H](C)NC(=O)[C@H](CC(N)=O)NC(=O)[C@H](C)NC(=O)[C@H](C)NC(=O)[C@H](C)NC(=O)[C@H](C)NC(=O)[C@H](C)NC(=O)[C@H](C)N)C(=O)O
H-2 Db; Db
  IC50: 257 nM

## RGPARAFVTI
H-2Dd
  IC50: 1.04 nM

## RNPRFYNL
H-2 Db; Db
  IC50: > 44000 nM

## CSCC[C@H](NC(=O)[C@H](C)NC(=O)[C@H](C)NC(=O)[C@H](Cc1ccc(O)cc1)NC(=O)[C@H](C)NC(=O)[C@H](C)NC(=O)[C@H](C)NC(=O)[C@H](C)N)C(=O)O
H-2 Db; Db
  IC50: > 44000 nM

## GMRQNATEI
H-2 Db; Db
  IC50: 81 nM

## XVXDNATEY
HLA-B*0702; read-out: B*0702 binding affinity (IC50)
  IC50: > 55000 nM

## CSCC[C@H](NC(=O)[C@@H](NC(=O)[C@H](CCC(=O)O)NC(=O)[C@H](CCSC)NC(=O)[C@H](CC(N)=O)NC(=O)[C@H](CCC(=O)O)NC(=O)[C@H](CC(N)=O)NC(=O)[C@H](CO)NC(=O)[C@H](C)N)[C@@H](C)O)C(=O)O
H-2 Db; Db
  IC50: 41 nM and 33 nM
H-2Dd
  IC50: > 37000 nM

## RLIQNFLTI
H-2 Db; Db
  IC50: 40 nM

## APRGPGPGAL [APRGPGPGAL]
HLA-B*0702; B*0702 binding affinity (IC50)
  IC50: 11 nM

## CC[C@H](C)[C@H](NC(=O)[C@H](Cc1ccccc1)NC(=O)[C@H](CCC(N)=O)NC(=O)CNC(=O)[C@H](CC(N)=O)NC(=O)[C@H](CCC(N)=O)NC(=O)[C@@H]1CCCN1C(=O)[C@H](CCC(N)=O)NC(=O)[C@@H](N)Cc1ccccc1)C(=O)N[C@@H](Cc1c[nH]cn1)C(=O)N[C@@H](Cc1ccccc1)C(=O)N[C@@H](Cc1ccc(O)cc1)C(=O)O
H-2 Db; Db
  IC50: 280 nM

## RPGPGPGAV
HLA-B*0702; B*0702 binding affinity (IC50)
  IC50: 23 nM

## WGPSLYSIL
H-2Dd
  IC50: 6.6 nM

## SGVENPGGYCL
H-2 Db; Db
  IC50: 60 nM

## RGPGRAFYTI
H-2Dd
  IC50: 7.2 nM

## QLQQFQKEDAAVTIY
HLA-DR DRB1*1101 (DR11); read-out: DRB1 *1101
  IC50: > 408000 nM
HLA-DR DRB1*1302 (DR13)
  IC50: 68 nM
HLA-DR DRB1*1501 (DR15); read-out: DRBI *1501
  IC50: 1720 nM
HLA-DR DRB4*0101 (DR53); read-out: DRB4 *0101
  IC50: 1340 nM
HLA-DR DRB5*0101 (DR51); read-out: DRB5 *0101
  IC50: 4270 nM
[1]; read-out: DQB1*0301
  IC50: 26200 nM

## RGPYRAAVTI
H-2Dd
  IC50: 2 nM

## RPRGPGPGV
HLA-B*0702; B*0702 binding affinity (IC50)
  IC50: 11 nM

## CC[C@H](C)[C@H](NC(=O)[C@@H](NC(=O)[C@@H](NC(=O)[C@H](Cc1ccccc1)NC(=O)[C@H](C)NC(=O)[C@H](CCCNC(=N)N)NC(=O)CNC(=O)[C@@H]1CCCN1C(=O)CNC(=O)[C@@H](N)CCCNC(=N)N)C(C)C)[C@@H](C)O)C(=O)O
H-2 Db; Db
  IC50: 22000 nM

## KQYLNLYPV
H-2 Db; Db
  IC50: 3.4 nM

## VPGPGPGL
HLA-B*0702; B*0702 binding affinity (IC50)
  IC50: 1520 nM

## IDVWLGDLAENFLPY
[1]
  IC50: > 44600 nM

## CSANNSHHYM
H-2 Db; Db
  IC50: 42 nM

## APAAPGPGPGA
HLA-B*0702; B*0702 binding affinity (IC50)
  IC50: 811 nM

## (44)YAAAAAAKAAA
[1]; read-out: DQB1*0301
  IC50: 26 nM

## CMANNSHHYI
H-2 Db; Db
  IC50: 220 nM

## RGKYRAFVTI
H-2Dd
  IC50: 67 nM

## QKEDAAVTIYIEMLQN
[1]; read-out: DQB1*0301
  IC50: 515 nM

## RGPYRAFVKI
H-2Dd
  IC50: 3.9 nM

## RGPGRYFVTI
H-2Dd
  IC50: 2.7 nM
